The source of these data is patent US9833497B2, “Human originated EGF domain proteins and use of the same” (CHENGDU SOURCEBIO LIMITED-LIABILITY COMPANY, priority 2013, dated 2017).

Holding throughout (type): cell-based
Experiment [1] concerns E. coli DH5α. The experiment in a line: Antibacterial activity: MIC and growth curve against E. coli DH5α in 96-well plate. The conditions noted are these: minimal inhibitory concentration against E. coli DH5α; 96-well plate, 5×10^5 CFU/mL, 37° C., judged after 8 h. In outline: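 Log-phase DH5α (OD600 about 0.5, 37° C, 185 rpm in LB) was pelleted, resuspended in fresh LB and seeded at 5×10^5 CFU/mL with recombinant protein at 50, 25 and 12.5 μg/mL (two-fold series), in triplicate. Plates were shaken at 175 rpm, 37° C, and OD600 was read every 30 min. MIC was the lowest concentration with no growth.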

Experiment [2] relates to E. coli BL21. The experiment in a line: MIC against Gram-negative bacteria: E. coli BL21. In outline:
(§1)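 Bacteria grown in LB at 37° C to McFarland 0.5, resuspended and seeded at 5×10^5 CFU/mL in 96-well plates. Purified human EGF-domain proteins two-fold serially diluted, triplicate wells; cultured at 37° C, shaking 175 rpm. MIC = lowest protein concentration with no growth.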

For experiment [3], the system named is Pseudomonas aeruginosa. As to the kind of experiment: MIC against Gram-negative bacteria: Pseudomonas aeruginosa. In outline:
as §1

The test system of experiment [4] is Klebsiella pneumonia. The experiment in a line: MIC against Gram-negative bacteria: Klebsiella pneumonia. An outline of the steps: as §1
Experiment [5] concerns Enterobacter cloacae. The experiment in a line: MIC against Gram-negative bacteria: Enterobacter cloacae. In outline: as §1
Experiment [6] has as its system Aeromonas hydrophila. The experiment in a line: MIC against Gram-negative bacteria: Aeromonas hydrophila. In outline: as §1
Experiment [7] has as its system Citrobacter diversus. The experiment in a line: MIC against Gram-negative bacteria: Citrobacter diversus. In outline: as §1
Experiment [8] has as its system Moraxella catarrhalis. The experiment in a line: MIC against Gram-negative bacteria: Moraxella catarrhalis. In outline:
as §1

In experiment [9] the test system is Proteus mirabilis. The experiment in a line: MIC against Gram-negative bacteria: Proteus mirabilis. An outline of the steps:
as §1

Experiment [10] has as its system Proteus vulgaris. The experiment in a line: MIC against Gram-negative bacteria: Proteus vulgaris. An outline of the steps:
as §1

Experiment [11] concerns Serratia marcescens. The experiment in a line: MIC against Gram-negative bacteria: Serratia marcescens. An outline of the steps:
as §1

[12] abbreviates: E. coli BL21, 96-well plate, 5×10^5 CFU/mL, 37° C., 10 h.
[13] abbreviates: Pseudomonas aeruginosa, 96-well plate, 5×10^5 CFU/mL, 37° C., 10 h.
Setting [14] is: Klebsiella pneumonia, 96-well plate, 5×10^5 CFU/mL, 37° C., 10 h.
[15] abbreviates: Enterobacter cloacae, 96-well plate, 5×10^5 CFU/mL, 37° C., 10 h.
The mark [16] stands for this setting: Aeromonas hydrophila, 96-well plate, 5×10^5 CFU/mL, 37° C., 10 h.
[17] abbreviates: Citrobacter diversus, 96-well plate, 5×10^5 CFU/mL, 37° C., 10 h.
Where [18] appears, read: Moraxella catarrhalis, 96-well plate, 5×10^5 CFU/mL, 37° C., 10 h.
Where [19] appears, read: Proteus mirabilis, 96-well plate, 5×10^5 CFU/mL, 37° C., 10 h.
Where [20] appears, read: Proteus vulgaris, 96-well plate, 5×10^5 CFU/mL, 37° C., 10 h.
Where [21] appears, read: Serratia marcescens, 96-well plate, 5×10^5 CFU/mL, 37° C., 10 h.
[22] abbreviates: 96-well plate, 5×10^5 CFU/mL, 37° C., 10 h.
Setting [23] is: 10 h cultivation at 37° C., 5×10^5 CFU/mL, two-fold serial dilution.

“PRT1264 (DIDECGNELNGGCVHDCLNIPGNYRCTCFDGFMLAHDGHNCL; listed as Homo sapiens)” had a minimum inhibitory concentration (MIC) in [1] of 12.5 µg/mL. The “MIC against E. coli BL21” value in [2] (setting [12]) is 50 µg/mL. Further, in [3] (setting [13]), the “MIC against P. aeruginosa” value is 12.5 µg/mL. In addition, the “MIC against K. pneumonia” value in [4] (setting [14]) was 25 µg/mL. Moreover, in experiment [5] (setting [15]), the “MIC against E. cloacae” value came out at 12.5 µg/mL. The “MIC against A. hydrophila” value in [6] (setting [16]) turned out to be 25 µg/mL. Further, in experiment [7] (setting [17]), the “MIC against C. diversus” value is 12.5 µg/mL. Moreover, in experiment [8] (setting [18]), the “MIC against M. catarrhalis” value came to 50 µg/mL. In addition, in experiment [9] (setting [19]), the “MIC against P. mirabilis” value came to 12.5 µg/mL. Further, the “MIC against P. vulgaris” value in experiment [10] (setting [20]) worked out at 50 µg/mL. In addition, in [11] (setting [21]), the “MIC against S. marcescens” value was 12.5 µg/mL.
The substance “PRT632 (CKCHPLGSQEDQCHPKTGQCTCRPGVTGQACDRCQLGFFGFSIKGCRA; listed as Homo sapiens)” registered an MIC in experiment [1] of 12.5 µg/mL. For the same substance, the “MIC E. coli BL21” value in experiment [2] (setting [22]) is 25 µg/mL. Besides, in [3] (setting [22]), the “MIC P. aeruginosa” value is 12.5 µg/mL. The “MIC K. pneumonia” value in experiment [4] (setting [22]) turned out to be 25 µg/mL. In addition, the “MIC E. cloacae” value in experiment [5] (setting [22]) is 12.5 µg/mL. In addition, the “MIC A. hydrophila” value in [6] (setting [22]) stood at 25 µg/mL. For the same substance, in [7] (setting [22]), the “MIC C. diversus” value came to 50 µg/mL. The “MIC M. catarrhalis” value in experiment [8] (setting [22]) was 25 µg/mL. Moreover, the “MIC P. mirabilis” value in experiment [9] (setting [22]) was found to be 12.5 µg/mL. Further, the “MIC P. vulgaris” value in experiment [10] (setting [22]) stood at 25 µg/mL. Besides, in experiment [11] (setting [22]), the “MIC S. marcescens” value was 50 µg/mL.
As to “PRT716 (TEYTCEDNVNPCGDDAYCNQIKTSVFCRCKPGFQRNMKNRQCE; listed as Homo sapiens)”, the MIC in experiment [1] came out at 25 µg/mL. Moreover, the “MIC E. coli BL21” value in experiment [2] (setting [22]) was 50 µg/mL. In addition, in experiment [3] (setting [22]), the “MIC P. aeruginosa” value amounted to 25 µg/mL. Further, the “MIC K. pneumonia” value in experiment [4] (setting [22]) amounted to 12.5 µg/mL. Besides, in experiment [5] (setting [22]), the “MIC E. cloacae” value amounted to 25 µg/mL. Further, the “MIC A. hydrophila” value in [6] (setting [22]) amounted to 50 µg/mL. For the same substance, the “MIC C. diversus” value in experiment [7] (setting [22]) was 25 µg/mL. The “MIC M. catarrhalis” value in [8] (setting [22]) came out at 12.5 µg/mL. Also, the “MIC P. mirabilis” value in experiment [9] (setting [22]) is 25 µg/mL. Besides, the “MIC P. vulgaris” value in [10] (setting [22]) came out at 50 µg/mL. Further, the “MIC S. marcescens” value in [11] (setting [22]) worked out at 12.5 µg/mL.
Substance “PRT31 (CDCYPVGSTSRSCAPHSGQCPCRPGALGRQCNSCDSPFAEVTASGC; listed as Homo sapiens)” registered an MIC in [1] of 25 µg/mL. In addition, the “MIC (μg/mL) E. coli BL21” value in experiment [2] (setting [12]) is 12.5 µg/mL. The “MIC (μg/mL) P. aeruginosa” value in experiment [3] (setting [13]) was 12.5 µg/mL. In experiment [4] (setting [14]), the “MIC (μg/mL) K. pneumonia” value was found to be 25 µg/mL. The “MIC (μg/mL) E. cloacae” value in experiment [5] (setting [15]) worked out at 12.5 µg/mL. In experiment [6] (setting [16]), the “MIC (μg/mL) A. hydrophila” value came to 25 µg/mL. Further, the “MIC (μg/mL) C. diversus” value in experiment [7] (setting [17]) is 12.5 µg/mL. Further, in experiment [8] (setting [18]), the “MIC (μg/mL) M. catarrhalis” value is 12.5 µg/mL. Besides, the “MIC (μg/mL) P. mirabilis” value in [9] (setting [19]) came to 25 µg/mL. For the same substance, in [10] (setting [20]), the “MIC (μg/mL) P. vulgaris” value worked out at 50 µg/mL. For the same substance, the “MIC (μg/mL) S. marcescens” value in [11] (setting [21]) amounted to 25 µg/mL.
In the case of “PRT1000 (ELGGCISAPCAHGGTCYPQPSGYNCTCPTGYTGPTCS; listed as Homo sapiens)”, the minimum inhibitory concentration (MIC) in experiment [1] stood at 50 µg/mL; in [2] (E. coli BL21, 10 h cultivation at 37° C.), 12.5 µg/mL; in experiment [3] (P. aeruginosa, 10 h cultivation at 37° C.), 50 µg/mL; in [4] (K. pneumonia, 10 h cultivation at 37° C.), 25 µg/mL; in experiment [5] (E. cloacae, 10 h cultivation at 37° C.), 12.5 µg/mL; in [6] (A. hydrophila, 10 h cultivation at 37° C.) it was 25 µg/mL. For the same substance, the minimum inhibitory concentration (MIC) came out at 50 µg/mL in [7] (C. diversus, 10 h cultivation at 37° C.); 25 µg/mL in experiment [8] (M. catarrhalis, 10 h cultivation at 37° C.); 12.5 µg/mL in experiment [9] (P. mirabilis, 10 h cultivation at 37° C.); 25 µg/mL in experiment [10] (P. vulgaris, 10 h cultivation at 37° C.); 50 µg/mL in experiment [11] (S. marcescens, 10 h cultivation at 37° C.).
Regarding “PRT1090 (NNTRCLSNSCQNNSTCKDFSKDNDCSCSDTANNLDKDCD; listed as Homo sapiens)”, the minimal inhibitory concentration (MIC) in experiment [1] is 25 µg/mL. The “MIC E. coli BL21” value in [2] (setting [23]) was determined as 12.5 µg/mL. Besides, in experiment [3] (setting [23]), the “MIC P. aeruginosa” value came to 50 µg/mL. In addition, the “MIC K. pneumonia” value in experiment [4] (setting [23]) stood at 12.5 µg/mL. For the same substance, the “MIC E. cloacae” value in experiment [5] (setting [23]) is 50 µg/mL. Moreover, the “MIC A. hydrophila” value in experiment [6] (setting [23]) came out at 12.5 µg/mL. Further, the “MIC C. diversus” value in experiment [7] (setting [23]) stood at 25 µg/mL. Further, in experiment [8] (setting [23]), the “MIC M. catarrhalis” value worked out at 50 µg/mL. In addition, the “MIC P. mirabilis” value in [9] (setting [23]) is 25 µg/mL. For the same substance, the “MIC P. vulgaris” value in experiment [10] (setting [23]) stood at 12.5 µg/mL. Moreover, the “MIC S. marcescens” value in experiment [11] (setting [23]) worked out at 25 µg/mL.

As a reminder, the MIC is the least concentration at which growth counts as inhibited. A lower MIC goes with a more susceptible organism.
